This passage reports cytotoxicity results from ChEMBL document CHEMBL3507680, “University of Dundee, Gates Library screen for HepG2 cell viability”.

The nature of this data set: Human HepG2 cell viability assay in 384 well format. Type of data set: toxicity, cell-based. Also noted: dose 125 nL, time 70.5 hour; cytotoxicity at 70.5 h: concentration not given beside the values. The conditions noted are these: HepG2 cells, read-out: Inhibition.
On to `CN(C)c1cc2c(nn1)CCN(C(=O)c1ccc(-n3cccn3)nc1)C2`, for which the cytotoxicity at 70.5 h is -25.2%.

Take `CNc1cc2c(nn1)CCN(C(=O)c1ccc(-n3cccn3)nc1)C2`: the cytotoxicity at 70.5 h was -14.4%.

Turning to `CC(CNC(=O)c1cnc[nH]1)Oc1ccc(Cl)cc1` (stereo unspecified), the cytotoxicity at 70.5 h is -22.4%.

As for `CN(CCNC(=O)Nc1nccs1)Cc1ccc(F)cc1`, the cytotoxicity at 70.5 h is -13.1%.

As for `NC(=O)c1cc(C2CCCN(CCc3ccc4c(c3)CCO4)C2)n[nH]1` (stereo unspecified), the cytotoxicity at 70.5 h was -19%.

Turning to `Cc1nc(COc2ccc(N(C)S(C)(=O)=O)cc2)sc1C`, the cytotoxicity at 70.5 h came to 48%.

For the compound `Cc1ncsc1C(=O)OCCN1CCCc2ccccc21`, the cytotoxicity at 70.5 h was -22.3%.

In the case of `Cc1nnc(-c2cccc(C#N)c2)n1C1CCCN(C(C)C)C1=O` (stereo unspecified), the cytotoxicity at 70.5 h was -9.5%.

For `CN(Cc1cnccn1)c1cncc(Br)c1`, the cytotoxicity at 70.5 h was -22%.

With `Cc1cc(Cl)c(C)c(S(=O)(=O)N2CCN(Cc3ccccn3)CC2)c1Cl`, the cytotoxicity at 70.5 h was determined as 40.2%.

Regarding `Cc1cc(C(=O)NCCN2CCC(C)CC2)nn1C(C)(C)C`, the cytotoxicity at 70.5 h was -15.3%.

For the compound `Cc1cc(C(=O)NCCN2CCCCCC2)nn1C(C)(C)C`, the cytotoxicity at 70.5 h was -4.89%.

With `COCC(=O)N1CCN(C(C)c2ncc(-c3ccccc3)o2)CC1` (stereo unspecified), the cytotoxicity at 70.5 h is -13.2%.

With `COc1ccccc1OC(C)CNC(=O)c1cnc[nH]1` (stereo unspecified), the cytotoxicity at 70.5 h is -21.2%.

Turning to `CC(c1ncc(-c2ccccc2)o1)N1CCN(C(=O)C(C)(C)C)CC1` (stereo unspecified), the cytotoxicity at 70.5 h was -25.9%.

With `c1ccn2c(C3CCCN3Cc3nc(C4CC4)no3)nnc2c1` (stereo unspecified), the cytotoxicity at 70.5 h is -21.8%.

Take `COc1c(C2CCCN2Cc2cn3ccsc3n2)c(C)nn1C` (stereo unspecified): the cytotoxicity at 70.5 h is -6.12%.

In the case of `CC(c1cc(F)ccc1F)N(C)CCS(=O)(=O)CCC(N)=O` (stereo unspecified), the cytotoxicity at 70.5 h was -8.99%.

With `CC(C)N(CCNC(=O)c1n[nH]c2ccccc12)C(C)C`, the cytotoxicity at 70.5 h is -7.32%.

On to `COc1ccc(C(C)N2CCC(C(=O)NC3CC3)CC2)cc1Cl` (stereo unspecified), for which the cytotoxicity at 70.5 h was -7.15%.

For the compound `CCC(=O)NC1CCCN(Cc2ccc(-n3ccnc3)cc2)C1` (stereo unspecified), the cytotoxicity at 70.5 h was -4.83%.

For the compound `O=C(CCc1ccco1)Nc1cccc(S(=O)(=O)C(F)F)c1`, the cytotoxicity at 70.5 h was -9.11%.

On to `O=C(c1ccc2c(c1)[nH]c(=O)n2C1CCCC1)N1CCCSCC1`, for which the cytotoxicity at 70.5 h is -8.62%.

Regarding `COc1ccc(C(C)N2CCC(NS(C)(=O)=O)CC2)cc1Cl` (stereo unspecified), the cytotoxicity at 70.5 h turned out to be 10.5%.

Consider `Cc1nn(C)c(C)c1C1CCCN1Cc1cn2ccsc2n1` (stereo unspecified), for which the cytotoxicity at 70.5 h is -0.408%.

With `COc1cccc(C(O)CN2CCN(C(=O)CCC(C)C)CC2)c1` (stereo unspecified), the cytotoxicity at 70.5 h came out at 9.11%.

In the case of `CC(C)N(CCNC(=O)c1[nH]nc2ccc(I)cc12)C(C)C`, the cytotoxicity at 70.5 h was -1.97%.

As to `Cc1cc(C)cc(NC(=O)N(CCC#N)CCCN(C)C)c1`, the cytotoxicity at 70.5 h was -5.53%.

For `COc1cc(-c2noc(C(CC(C)C)N3CCCCC3=O)n2)ccn1` (stereo unspecified), the cytotoxicity at 70.5 h was -2.9%.

Turning to `CC(C)(C#N)C(=O)Nc1nccn1Cc1ccc(Br)cc1`, the cytotoxicity at 70.5 h was found to be 11.2%.

On to `COC1CCN(C(=O)c2nn(-c3ccc(C(C)C)cc3)cc2O)CC1`, for which the cytotoxicity at 70.5 h was determined as 10.9%.

Regarding `Cc1nn(C)c(Cl)c1C1CCCN1Cc1cn2ccsc2n1` (stereo unspecified), the cytotoxicity at 70.5 h was -1.16%.

Take `CC(=O)N1CCCCCC1C1CCN(Cc2nc(C3CC3)no2)CC1` (stereo unspecified): the cytotoxicity at 70.5 h is 0.683%.

Consider `OCC(O)CSCc1cn(-c2ccc(F)c(Cl)c2)nn1` (stereo unspecified), for which the cytotoxicity at 70.5 h is -7.46%.

For the compound `OCC(O)CSCc1cn(-c2ccc(Cl)c(Cl)c2)nn1` (stereo unspecified), the cytotoxicity at 70.5 h is -5.28%.

On to `Cc1ccc(-c2nc(CN(Cc3ccco3)C3CCS(=O)(=O)C3)cs2)o1` (stereo unspecified), for which the cytotoxicity at 70.5 h came to 15.2%.

Take `Cc1cc(NC(=O)Cn2ccccc2=O)n(C)n1`: the cytotoxicity at 70.5 h was -11.7%.

For `O=C(NCc1ccc(Cl)s1)c1ccc(N2CCOC2=O)cc1`, the cytotoxicity at 70.5 h was -7.09%.

For the compound `CC(NC(=O)CN1CCCC1=O)c1ccc(Cl)s1` (stereo unspecified), the cytotoxicity at 70.5 h is -9.58%.

On to `CC(NC(=O)NCCCN1CCCC1=O)c1ccc(Cl)s1` (stereo unspecified), for which the cytotoxicity at 70.5 h was -14.2%.

`N#Cc1ccc(N2CCCN(CC(=O)N3CCC3)CC2)cc1`: the cytotoxicity at 70.5 h is -2.99%.

Take `CCNC(=O)CN(CC)Cc1nc2c(F)cccc2n1CC`: the cytotoxicity at 70.5 h came out at 21.7%.

Regarding `Cc1cnn(C2CCCN(C(=O)Cn3ccc(=O)n(C)c3=O)C2)c1` (stereo unspecified), the cytotoxicity at 70.5 h was -1.04%.

For `Cc1ccccc1C1(CNC(=O)c2cccc(S(C)(=O)=O)c2)CC1`, the cytotoxicity at 70.5 h was determined as 20.2%.

With `O=C(CCC(=O)c1ccccc1)NC1(C(=O)NCC2CC2)CCCC1`, the cytotoxicity at 70.5 h was -9.03%.

Consider `O=C(Cc1cccs1)NC1(C(=O)NCC2CC2)CCCC1`, for which the cytotoxicity at 70.5 h is -7.33%.

Regarding `Cc1noc(-c2cccnc2N(C)Cc2cscn2)n1`, the cytotoxicity at 70.5 h is -5.46%.

Turning to `Cc1c(C2NC3(CCCC3)C(=O)N2CC2CC2)cc(C#N)n1C` (stereo unspecified), the cytotoxicity at 70.5 h is -8.72%.

On to `CC(=O)Nc1cccc(Cn2nc(C)nc2C)c1`, for which the cytotoxicity at 70.5 h is -6.2%.

Regarding `Cc1noc(-c2cccnc2N(C)Cc2ccc([S+](C)[O-])cc2)n1` (stereo unspecified), the cytotoxicity at 70.5 h is -3.37%.

With `c1ccc(CC2(CNCc3ncc[nH]3)CCC2)cc1`, the cytotoxicity at 70.5 h was -2.49%.

For `CCN1C(=O)C2(CCCCC2)NC1c1cc(C#N)n(C)c1C` (stereo unspecified), the cytotoxicity at 70.5 h is -8.35%.

With `N#Cc1ccc(CN(CC(N)=O)C2CCCC2)c(Br)c1`, the cytotoxicity at 70.5 h was -6.26%.

Take `Cc1csc(C2(NCc3nc(-c4ccco4)no3)CCCC2)n1`: the cytotoxicity at 70.5 h was -12.8%.

For the compound `Cc1ncsc1C(=O)N1CC(C)Sc2ccccc21` (stereo unspecified), the cytotoxicity at 70.5 h was -8.57%.

On to `Cc1nc(CN2CCCC(Nc3ncnc4ccccc34)C2)no1` (stereo unspecified), for which the cytotoxicity at 70.5 h was -5.36%.

As to `CN(Cc1ccc(Cl)s1)C(=O)CN(C)C1CCCc2ccccc21` (stereo unspecified), the cytotoxicity at 70.5 h is -4.74%.

Turning to `O=C(Cc1cccc(F)c1)N1CCc2ncnc(NC3CCC3)c2CC1`, the cytotoxicity at 70.5 h was found to be 2.52%.

For `O=C(NCc1cccc(F)c1)N1CCc2ncnc(NC3CC3)c2CC1`, the cytotoxicity at 70.5 h worked out at 1.62%.

Consider `CO[C@H]1CO[C@@]2(CCCN(C(=O)N(C)C)C2)C1`, for which the cytotoxicity at 70.5 h was -3.18%.

As for `CCS(=O)(=O)N1CCC2(CC1)c1ncc(-c3cccnc3)n1CCN2C`, the cytotoxicity at 70.5 h is -5.3%.

On to `CS(=O)(=O)N1CC[C@H]2OCC[C@@]2(C(=O)NCC2CC2)C1`, for which the cytotoxicity at 70.5 h was -7.08%.

In the case of `CC(C)n1c2ccccc2c2c1cc(C(=O)NCCO)n2C(=O)N(C)C`, the cytotoxicity at 70.5 h is -4.08%.

As for `CC(=O)N1CCO[C@@H]2CN(C(=O)NCc3ccccc3)CC[C@@H]2C1`, the cytotoxicity at 70.5 h amounted to 9.54%.

Take `CN1CCO[C@@H]2CN(C(=O)NCc3cccc(F)c3)CC[C@@H]2C1`: the cytotoxicity at 70.5 h is -3.54%.

Take `CC(=O)N1CCc2nc(-c3ccccc3)nc(NC(C)C)c2CC1`: the cytotoxicity at 70.5 h was -13.5%.

On to `O=C(C1CC1)N1CCOC2(CCNCC2)C1`, for which the cytotoxicity at 70.5 h is -10.9%.

With `CN(Cc1cccnc1)Cc1cncc2c1CCN(Cc1ccoc1)C2`, the cytotoxicity at 70.5 h was -7.08%.

On to `CN(Cc1cccnc1)Cc1cncc2c1CCN(c1ccccn1)C2`, for which the cytotoxicity at 70.5 h worked out at 2.24%.

As for `CS(=O)(=O)N1CC[C@H]2OCC[C@@]2(C(=O)NCCc2ccccn2)C1`, the cytotoxicity at 70.5 h is -7.11%.

For the compound `CC(C)NC(=O)N1CCN(CCn2cccn2)c2ncccc2C1`, the cytotoxicity at 70.5 h is -2.7%.
